Measurements as given in PubChem BioAssay AID1963420 (Molecular Pharmacology Branch, DTP, NCI, 2024).

System: 494315-158-R-J1-PDC complex spheroid growth, percent test/control
Assay: Anticancer human tumor 494315-158-R-J1-PDC patient-derived soft tissue sarcoma cell line growth inhibition [Asc]
Details: for IC50: curve of first compound; for viability, T/C: stronger effect = lower value
How it was run: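 Concentration series start at each agent's clinical Cmax, or at 10 microM when none is established, and drop in half-log steps; agents are applied alone or together to complex spheroids built with HUVEC and hMSC.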

[1] = second compound 0.1 µM, first compound 0.00316 µM
[2] = second compound 0.1 µM, first compound 0.01 µM
[3] = second compound 0.1 µM, first compound 0.0316 µM
[4] = second compound 0.1 µM, first compound 0.1 µM
[5] = second compound 0.1 µM, first compound 0.316 µM
[6] = second compound 0.1 µM, first compound 1 µM
[7] = second compound 0.316 µM, first compound 0.00316 µM
[8] = second compound 0.316 µM, first compound 0.01 µM
[9] = second compound 0.316 µM, first compound 0.0316 µM
[10] = second compound 0.316 µM, first compound 0.1 µM
[11] = second compound 0.316 µM, first compound 0.316 µM
[12] = second compound 0.316 µM, first compound 1 µM
[13] = second compound 1 µM, first compound 0.00316 µM
[14] = second compound 1 µM, first compound 0.01 µM
[15] = second compound 1 µM, first compound 0.0316 µM
[16] = second compound 1 µM, first compound 0.1 µM
[17] = second compound 1 µM, first compound 0.316 µM
[18] = second compound 1 µM, first compound 1 µM
[19] = second compound 3.16 µM, first compound 0.00316 µM
[20] = second compound 3.16 µM, first compound 0.01 µM
[21] = second compound 3.16 µM, first compound 0.0316 µM
[22] = second compound 3.16 µM, first compound 0.1 µM
[23] = second compound 3.16 µM, first compound 0.316 µM
[24] = second compound 3.16 µM, first compound 1 µM
[25] = second compound 10 µM, first compound 0.00316 µM
[26] = second compound 10 µM, first compound 0.01 µM
[27] = second compound 10 µM, first compound 0.0316 µM
[28] = second compound 10 µM, first compound 0.1 µM
[29] = second compound 10 µM, first compound 0.316 µM
[30] = second compound 10 µM, first compound 1 µM
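Also: compound exposure lasted seven days after spheroids formed for three days.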

Compound | IC50 (second compound 0.1 µM) | IC50 (second compound 0.316 µM) | IC50 (second compound 1 µM) | IC50 (second compound 3.16 µM) | IC50 (second compound 10 µM) | viability, T/C [1] | viability, T/C [2] | viability, T/C [3] | viability, T/C [4] | viability, T/C [5] | viability, T/C [6] | viability, T/C [7] | viability, T/C [9] | viability, T/C [10] | viability, T/C [15] | viability, T/C [16] | viability, T/C [21] | viability, T/C [22] | viability, T/C [27] | viability, T/C [28] | also measured
CCN1CCN(Cc2ccc(Nc3ncc(F)c(-c4cc(F)c5nc(C)n(C(C)C)c5c4)n3)nc2)CC1 + Cc1c(S(C)(=O)=O)c(-c2cc(F)cc(N3CCN(c4ccc(NS(=O)(=O)c5ccc(NC(CCN6CCC(C(=O)OCCCP(=O)(O)O)CC6)CSc6ccccc6)c(S(=O)(=O)C(F)(F)F)c5)cc4)CC3)c2)c(-c2ccc(Cl)cc2)n1C(C)C | > 1000 nM | 829 nM | > 1000 nM | 272 nM | 725 nM | 75.6% | 83% | 78.3% | 77.1% | 77.8% | 53.6% | 72.2% | 78% | 67.1% | 68% | 65.7% | 54.3% | 61.4% | 73.2% | 76.7% | viability, T/C [8]: 79.8%; viability, T/C [11]: 70.9%; viability, T/C [12]: 46.1%; viability, T/C [13]: 61.9%; viability, T/C [14]: 65.7%; viability, T/C [17]: 61.6%; viability, T/C [18]: 41.1%; viability, T/C [19]: 56.1%; viability, T/C [20]: 52%; viability, T/C [23]: 46.2%; viability, T/C [24]: 31.3%; viability, T/C [25]: 79%; viability, T/C [26]: 81%; viability, T/C [29]: 73.3%; viability, T/C [30]: 41%
Cn1ncnc1[C@H]1c2n[nH]c(=O)c3cc(F)cc(c23)N[C@@H]1c1ccc(F)cc1 + Cc1c(S(C)(=O)=O)c(-c2cc(F)cc(N3CCN(c4ccc(NS(=O)(=O)c5ccc(NC(CCN6CCC(C(=O)OCCCP(=O)(O)O)CC6)CSc6ccccc6)c(S(=O)(=O)C(F)(F)F)c5)cc4)CC3)c2)c(-c2ccc(Cl)cc2)n1C(C)C | 26.8 nM | 18.1 nM | 4.34 nM | 1.3 nM | 4.61 nM | 62.2% | 56.5% | 48.7% | 46.1% |  |  | 63.9% | 50.9% | 48.9% | 38.9% | 35% | 32.9% | 25.4% | 38.4% | 45.7% | viability, T/C (second compound 0.1 µM, first compound 0.000316 µM): 83.2%; viability, T/C (second compound 0.1 µM, first compound 0.001 µM): 76%; viability, T/C (second compound 0.316 µM, first compound 0.000316 µM): 74.6%; viability, T/C (second compound 0.316 µM, first compound 0.001 µM): 63.1%; viability, T/C [8]: 44.6%; viability, T/C (second compound 1 µM, first compound 0.000316 µM): 56.4%; viability, T/C (second compound 1 µM, first compound 0.001 µM): 59%; viability, T/C [13]: 52%; viability, T/C [14]: 43%; viability, T/C (second compound 3.16 µM, first compound 0.000316 µM): 56.1%; viability, T/C (second compound 3.16 µM, first compound 0.001 µM): 53.5%; viability, T/C [19]: 40.3%; viability, T/C [20]: 31.6%; viability, T/C (second compound 10 µM, first compound 0.000316 µM): 66.1%; viability, T/C (second compound 10 µM, first compound 0.001 µM): 71.2%; viability, T/C [25]: 53.3%; viability, T/C [26]: 45.2%
O=C(c1cc(Cc2n[nH]c(=O)c3ccccc23)ccc1F)N1CCN(C(=O)C2CC2)CC1 + Cc1c(S(C)(=O)=O)c(-c2cc(F)cc(N3CCN(c4ccc(NS(=O)(=O)c5ccc(NC(CCN6CCC(C(=O)OCCCP(=O)(O)O)CC6)CSc6ccccc6)c(S(=O)(=O)C(F)(F)F)c5)cc4)CC3)c2)c(-c2ccc(Cl)cc2)n1C(C)C | 3040 nM | 1620 nM | 1640 nM | 1080 nM | 2260 nM |  |  | 86% | 76.2% | 69.2% | 63.5% |  | 71.7% | 66.4% | 62.7% | 70.9% | 48.1% | 51.8% | 69.5% | 77.1% | viability, T/C (second compound 0.1 µM, first compound 3.16 µM): 49.5%; viability, T/C (second compound 0.1 µM, first compound 10 µM): 36.3%; viability, T/C [11]: 59.7%; viability, T/C [12]: 57.6%; viability, T/C (second compound 0.316 µM, first compound 3.16 µM): 42.5%; viability, T/C (second compound 0.316 µM, first compound 10 µM): 33%; viability, T/C [17]: 62%; viability, T/C [18]: 57.8%; viability, T/C (second compound 1 µM, first compound 3.16 µM): 40.1%; viability, T/C (second compound 1 µM, first compound 10 µM): 23.4%; viability, T/C [23]: 53.5%; viability, T/C [24]: 51%; viability, T/C (second compound 3.16 µM, first compound 3.16 µM): 37%; viability, T/C (second compound 3.16 µM, first compound 10 µM): 22.2%; viability, T/C [29]: 73.4%; viability, T/C [30]: 58.5%; viability, T/C (second compound 10 µM, first compound 3.16 µM): 46.8%; viability, T/C (second compound 10 µM, first compound 10 µM): 29.3%
O=C(c1ccc(F)c(F)c1Nc1ccc(I)cc1F)N1CC(O)([C@@H]2CCCCN2)C1 + Cc1c(S(C)(=O)=O)c(-c2cc(F)cc(N3CCN(c4ccc(NS(=O)(=O)c5ccc(NC(CCN6CCC(C(=O)OCCCP(=O)(O)O)CC6)CSc6ccccc6)c(S(=O)(=O)C(F)(F)F)c5)cc4)CC3)c2)c(-c2ccc(Cl)cc2)n1C(C)C | 543 nM | 375 nM | 258 nM | 142 nM | 245 nM | 78.8% | 78.8% | 87.4% | 85.3% | 72.1% | 24.9% | 71.2% | 70.6% | 72% | 71.6% | 72.5% | 59.5% | 53.6% | 76.4% | 79.9% | viability, T/C [8]: 78.9%; viability, T/C [11]: 55.8%; viability, T/C [12]: 15.5%; viability, T/C [13]: 60.4%; viability, T/C [14]: 61.2%; viability, T/C [17]: 46.5%; viability, T/C [18]: 12.2%; viability, T/C [19]: 60.5%; viability, T/C [20]: 53.6%; viability, T/C [23]: 40.7%; viability, T/C [24]: 18.3%; viability, T/C [25]: 68.2%; viability, T/C [26]: 75.2%; viability, T/C [29]: 43%; viability, T/C [30]: 13.7%
